± gives the expanded uncertainty stated by the source.
Test: xn = mol fraction of the nth substance listed
Conditions: 101 kPa, Liquid; for viscosity: Falling or rolling sphere viscometry; for speed of sound: Sing-around technique in a fixed-path interferometer; for mass density: Vibrating tube method

CCCCCC[n+]1ccn(C)c1.O=S(=O)([N-]S(=O)(=O)C(F)(F)F)C(F)(F)F + CCO
Conditions | mass density [kg/m3] | speed of sound [m/s] | viscosity [mPa·s]
278.15 K, x1 = 0.047 | 933.23 ± 0.12 | 1208.7 ± 0.63 | 2.69 ± 0.02
278.15 K, x1 = 0.097 | 1026.67 ± 0.14 | 1211.4 ± 0.63 | 4.32 ± 0.03
278.15 K, x1 = 0.198 | 1146.24 ± 0.21 | 1222.7 ± 0.64 | 9.53 ± 0.08
278.15 K, x1 = 0.292 | 1215.04 ± 0.21 | 1233.9 ± 0.64 | 16.27 ± 0.13
278.15 K, x1 = 0.39 | 1263.14 ± 0.22 | 1242.8 ± 0.65 | 25.73 ± 0.2
278.15 K, x1 = 0.47 | 1292.55 ± 0.21 | 1250.3 ± 0.65 | 35.73 ± 0.29
278.15 K, x1 = 0.596 | 1327.21 ± 0.19 | 1258.1 ± 0.65 | 56.91 ± 0.26
278.15 K, x1 = 0.694 | 1347.34 ± 0.18 | 1262.6 ± 0.65 | 79.17 ± 1.2
278.15 K, x1 = 0.799 | 1364.86 ± 0.18 | 1267.2 ± 0.66 | 112.54 ± 3.1
278.15 K, x1 = 0.903 | 1379.2 ± 0.18 | 1271.2 ± 0.66 | 154.54 ± 5.9
278.15 K, x1 = 1 | 1390.3 ± 0.19 | 1274.6 ± 0.66 | 211.31 ± 10
298.15 K, x1 = 0.047 | 915.22 ± 0.13 | 1145.7 ± 0.61 | 1.73 ± 0.01
298.15 K, x1 = 0.097 | 1008.17 ± 0.14 | 1152.5 ± 0.61 | 2.61 ± 0.02
298.15 K, x1 = 0.198 | 1127.27 ± 0.21 | 1168.4 ± 0.62 | 4.98 ± 0.04
298.15 K, x1 = 0.292 | 1195.96 ± 0.21 | 1181.9 ± 0.62 | 7.97 ± 0.06
298.15 K, x1 = 0.39 | 1244.05 ± 0.22 | 1192.3 ± 0.63 | 12.1 ± 0.1
298.15 K, x1 = 0.47 | 1273.5 ± 0.2 | 1200.6 ± 0.63 | 15.94 ± 0.13
298.15 K, x1 = 0.596 | 1308.27 ± 0.19 | 1209.2 ± 0.63 | 23.72 ± 0.19
298.15 K, x1 = 0.694 | 1328.48 ± 0.17 | 1214.1 ± 0.64 | 31.3 ± 0.25
298.15 K, x1 = 0.799 | 1346.07 ± 0.17 | 1218.9 ± 0.64 | 41.44 ± 0.33
298.15 K, x1 = 0.903 | 1360.48 ± 0.18 | 1223.1 ± 0.64 | 53.7 ± 0.17
298.15 K, x1 = 1 | 1371.64 ± 0.18 | 1226.8 ± 0.64 | 70.46 ± 0.82
318.15 K, x1 = 0.047 | 896.92 ± 0.13 | 1085 ± 0.59 | 1.18 ± 0.01
318.15 K, x1 = 0.097 | 989.44 ± 0.14 | 1095.9 ± 0.59 | 1.71 ± 0.01
318.15 K, x1 = 0.198 | 1108.22 ± 0.21 | 1116.3 ± 0.6 | 3.05 ± 0.02
318.15 K, x1 = 0.292 | 1176.89 ± 0.21 | 1131.9 ± 0.61 | 4.64 ± 0.04
318.15 K, x1 = 0.39 | 1225.05 ± 0.21 | 1143.8 ± 0.61 | 6.7 ± 0.05
318.15 K, x1 = 0.47 | 1254.61 ± 0.2 | 1153 ± 0.61 | 8.61 ± 0.07
318.15 K, x1 = 0.596 | 1289.55 ± 0.18 | 1162.6 ± 0.62 | 12.33 ± 0.1
318.15 K, x1 = 0.694 | 1309.88 ± 0.17 | 1168 ± 0.62 | 15.72 ± 0.12
318.15 K, x1 = 0.799 | 1327.59 ± 0.17 | 1173.4 ± 0.62 | 20.13 ± 0.16
318.15 K, x1 = 0.903 | 1342.08 ± 0.17 | 1178 ± 0.62 | 24.94 ± 0.2
318.15 K, x1 = 1 | 1353.31 ± 0.17 | 1182 ± 0.62 | 30.22 ± 0.24
338.15 K, x1 = 0.047 | 878.04 ± 0.14 | 1025.6 ± 0.56 | –
338.15 K, x1 = 0.097 | 970.28 ± 0.14 | 1040.6 ± 0.57 | –
338.15 K, x1 = 0.198 | 1088.96 ± 0.21 | 1065.5 ± 0.58 | –
338.15 K, x1 = 0.292 | 1157.75 ± 0.2 | 1083.5 ± 0.59 | –
338.15 K, x1 = 0.39 | 1206.1 ± 0.21 | 1097 ± 0.59 | –
338.15 K, x1 = 0.47 | 1235.83 ± 0.19 | 1107.2 ± 0.6 | –
338.15 K, x1 = 0.596 | 1271.01 ± 0.17 | 1118 ± 0.6 | –
338.15 K, x1 = 0.694 | 1291.5 ± 0.16 | 1124 ± 0.6 | –
338.15 K, x1 = 0.799 | 1309.35 ± 0.16 | 1130 ± 0.6 | –
338.15 K, x1 = 0.903 | 1323.94 ± 0.16 | 1135.2 ± 0.6 | –
338.15 K, x1 = 1 | 1335.25 ± 0.17 | 1139.3 ± 0.61 | –

CCn1cc[n+](C)c1.O=S(=O)([N-]S(=O)(=O)C(F)(F)F)C(F)(F)F + CCO
Conditions | mass density [kg/m3] | speed of sound [m/s] | viscosity [mPa·s]
278.15 K, x1 = 0.051 | 946.21 ± 0.14 | 1201.4 ± 0.63 | 2.42 ± 0.02
278.15 K, x1 = 0.102 | 1052.67 ± 0.18 | 1199.9 ± 0.63 | 3.44 ± 0.03
278.15 K, x1 = 0.198 | 1191.39 ± 0.26 | 1210.6 ± 0.63 | 5.9 ± 0.05
278.15 K, x1 = 0.292 | 1281.48 ± 0.28 | 1224.4 ± 0.64 | 8.91 ± 0.07
278.15 K, x1 = 0.402 | 1356.04 ± 0.3 | 1239.1 ± 0.65 | 13.41 ± 0.11
278.15 K, x1 = 0.501 | 1405.04 ± 0.29 | 1250.3 ± 0.65 | 18.24 ± 0.14
278.15 K, x1 = 0.619 | 1449.8 ± 0.25 | 1261.2 ± 0.65 | 25.83 ± 0.2
278.15 K, x1 = 0.71 | 1476.96 ± 0.24 | 1268.1 ± 0.66 | 33.19 ± 0.26
278.15 K, x1 = 0.811 | 1502.1 ± 0.24 | 1274.8 ± 0.66 | 43.83 ± 0.34
278.15 K, x1 = 0.907 | 1521.68 ± 0.24 | 1280 ± 0.66 | 56.33 ± 0.23
278.15 K, x1 = 1 | 1538.23 ± 0.25 | 1284.9 ± 0.66 | 75.08 ± 1
298.15 K, x1 = 0.051 | 927.85 ± 0.14 | 1139.3 ± 0.61 | 1.57 ± 0.01
298.15 K, x1 = 0.102 | 1033.54 ± 0.17 | 1142.6 ± 0.61 | 2.16 ± 0.02
298.15 K, x1 = 0.198 | 1171.44 ± 0.26 | 1158.2 ± 0.61 | 3.47 ± 0.03
298.15 K, x1 = 0.292 | 1261.14 ± 0.27 | 1174.5 ± 0.62 | 5.02 ± 0.04
298.15 K, x1 = 0.402 | 1335.52 ± 0.29 | 1190.9 ± 0.63 | 7.16 ± 0.06
298.15 K, x1 = 0.501 | 1384.32 ± 0.28 | 1203 ± 0.63 | 9.66 ± 0.08
298.15 K, x1 = 0.619 | 1429.22 ± 0.24 | 1214.6 ± 0.64 | 13.22 ± 0.1
298.15 K, x1 = 0.71 | 1456.41 ± 0.23 | 1222 ± 0.64 | 16.41 ± 0.13
298.15 K, x1 = 0.811 | 1481.59 ± 0.23 | 1229 ± 0.64 | 20.91 ± 0.16
298.15 K, x1 = 0.907 | 1501.19 ± 0.23 | 1234.4 ± 0.64 | 25.67 ± 0.2
298.15 K, x1 = 1 | 1517.76 ± 0.24 | 1240.1 ± 0.64 | 32.02 ± 0.25
318.15 K, x1 = 0.051 | 909.21 ± 0.14 | 1079.4 ± 0.58 | 1.09 ± 0.01
318.15 K, x1 = 0.102 | 1014.18 ± 0.17 | 1087.3 ± 0.59 | 1.46 ± 0.01
318.15 K, x1 = 0.198 | 1151.39 ± 0.25 | 1107.7 ± 0.6 | 2.27 ± 0.02
318.15 K, x1 = 0.292 | 1240.83 ± 0.27 | 1126.5 ± 0.6 | 3.21 ± 0.03
318.15 K, x1 = 0.402 | 1315.11 ± 0.29 | 1144.5 ± 0.61 | 4.59 ± 0.04
318.15 K, x1 = 0.501 | 1363.99 ± 0.28 | 1157.6 ± 0.62 | 5.85 ± 0.05
318.15 K, x1 = 0.619 | 1408.9 ± 0.24 | 1170 ± 0.62 | 7.84 ± 0.06
318.15 K, x1 = 0.71 | 1436.15 ± 0.22 | 1177.9 ± 0.62 | 9.67 ± 0.08
318.15 K, x1 = 0.811 | 1461.4 ± 0.22 | 1185.3 ± 0.62 | 11.96 ± 0.09
318.15 K, x1 = 0.907 | 1481.05 ± 0.23 | 1191.2 ± 0.63 | 14.35 ± 0.11
318.15 K, x1 = 1 | 1497.65 ± 0.23 | 1196.6 ± 0.63 | 17.32 ± 0.14
338.15 K, x1 = 0.051 | 889.98 ± 0.15 | 1020.7 ± 0.56 | 0.79 ± 0.01
338.15 K, x1 = 0.102 | 994.4 ± 0.17 | 1033.2 ± 0.57 | 1.05 ± 0.01
338.15 K, x1 = 0.198 | 1131.14 ± 0.25 | 1058.3 ± 0.58 | 1.6 ± 0.01
338.15 K, x1 = 0.292 | 1220.47 ± 0.26 | 1079.7 ± 0.59 | 2.23 ± 0.02
338.15 K, x1 = 0.402 | 1294.8 ± 0.28 | 1099.7 ± 0.59 | 3.16 ± 0.03
338.15 K, x1 = 0.501 | 1343.74 ± 0.27 | 1113.9 ± 0.6 | 3.99 ± 0.03
338.15 K, x1 = 0.619 | 1388.81 ± 0.23 | 1127.3 ± 0.6 | 5.23 ± 0.04
338.15 K, x1 = 0.71 | 1416.16 ± 0.21 | 1135.6 ± 0.61 | 6.35 ± 0.05
338.15 K, x1 = 0.811 | 1441.5 ± 0.21 | 1143.7 ± 0.61 | 7.7 ± 0.06
338.15 K, x1 = 0.907 | 1461.23 ± 0.22 | 1150 ± 0.61 | 9.11 ± 0.07
338.15 K, x1 = 1 | 1477.86 ± 0.22 | 1155.8 ± 0.61 | 10.82 ± 0.08
